Data set [1] concerns the target T1, Indoleamine 2,3-dioxygenase 1 (Homo sapiens, UniProt P14902). In words: Inhibition of IDO1 in human HeLa cells assessed as production of N-formylkynurenine using tryptophan as substrate in presence of inactivated fetal bovine serum. Type of data set: cell-based.
Data set [2] addresses T1, Indoleamine 2,3-dioxygenase 1. In words: Inhibition of IDO1 in human whole blood. Format: tissue-based.
Data set [3] shares this target. As to the kind of experiment: Inhibition of IDO1 in human whole blood assessed as unbound concentration. Type of data set: tissue-based.
Data set [4] is described as follows: Unbound clearance in male Wistar Han rat at 0.05 mg/kg, iv. Type of data set: ADME, organism-based. Particulars: in vivo.
The nature of data set [5]: MRT in male Wistar Han rat at 0.05 mg/kg, iv. Type of data set: ADME, organism-based. As to conditions: in vivo.
Data set [6] in a line: Clearance in male Wistar Han rats at 0.05 mg/kg, iv. Particulars: rat, in vivo. Type of data set: ADME, organism-based.
Data set [7] in a line: Clearance in Beagle dog at 0.05 mg/kg, iv. Type of data set: ADME, organism-based, Canis lupus familiaris. As to conditions: in vivo.
The nature of data set [8]: Unbound clearance in Beagle dog at 0.05 mg/kg, iv. Format: ADME, organism-based, Canis lupus familiaris. Particulars: in vivo.
Data set [9] is described as follows: MRT in Beagle dog at 0.05 mg/kg, iv. Format: ADME, organism-based, Canis lupus familiaris. As to conditions: in vivo.
Setting [10] is: male, Wistar Han, read-out: MRT.

Structures are written as SMILES.

T1 sequence (P14902 whole entry): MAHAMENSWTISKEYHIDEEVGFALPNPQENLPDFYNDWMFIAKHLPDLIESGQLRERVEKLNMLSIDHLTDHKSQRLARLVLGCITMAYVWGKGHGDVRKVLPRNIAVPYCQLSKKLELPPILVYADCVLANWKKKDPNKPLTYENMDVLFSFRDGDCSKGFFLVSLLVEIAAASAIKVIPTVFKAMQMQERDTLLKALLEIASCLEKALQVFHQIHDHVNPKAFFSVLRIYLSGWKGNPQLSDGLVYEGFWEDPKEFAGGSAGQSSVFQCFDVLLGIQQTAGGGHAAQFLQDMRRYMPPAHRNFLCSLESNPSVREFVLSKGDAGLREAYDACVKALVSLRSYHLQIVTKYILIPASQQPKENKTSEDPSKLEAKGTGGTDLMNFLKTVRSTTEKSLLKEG

What is called IC50 is the concentration that inhibits the measured activity by half. By MRT is commonly meant the average time that molecules of a dose stay in the body. Take `O=C(Nc1ccc(F)cc1)C1(C2CCC3C(CCCN3c3ccnc(C(F)(F)F)n3)C2)CCC1` (stereo in doubt; 20): the IC50 amounted to 1.9 nM in [1], 48 nM in data set [2] and 0.1 nM in data set [3]. The compound further gave a CL free in [4] of 9879 mL/min/kg. The compound also showed an MRT in data set [5] (0.05 mg/kg) of 2.7 h.
Usually clearance stands for a measure of how efficiently the substance is removed, as volume per time. A lower clearance goes with inefficient removal. For `O=C(CN1CCC2C(CCCN2C(=O)c2cccc(Cl)c2)C1)Nc1ccc(F)cc1` (stereo in doubt; 24), the IC50 in [1] was found to be 2 nM. Moreover, the clearance in data set [6] was 61 mL/min/kg. In data set [4], this compound came in with a CL free of 1401 mL/min/kg. Also, the mean residence time (MRT) in data set [5] (setting [10]) was found to be 1.6 h.
On to `Cc1nccc(N2CCCC3CN(C(C)C(=O)Nc4ccc(Cl)cc4)CCC32)n1` (stereo in doubt; 32), for which the 50% inhibitory concentration (IC50) in data set [1] was 12 nM. In [6], this compound returned a clearance of 31 mL/min/kg. This compound registered a CL free in data set [4] of 2381 mL/min/kg. Also, the MRT in data set [5] (setting [10]) turned out to be 2.9 h.
Consider `CC(C(=O)Nc1ccc(Cl)cc1)N1CCC2C(CCCN2c2ccnc(C(F)(F)F)n2)C1` (stereo in doubt; 33), for which the IC50 in [1] was 15 nM. Besides, the clearance in [6] was 19 mL/min/kg. In data set [4], this compound displayed a CL free of 8439 mL/min/kg. For the same compound, the MRT in data set [5] (setting [10]) came to 3 h.
For the compound `C[C@@H](C(=O)Nc1ccc(F)cc1)C1CCC2C(CCCN2C(=O)c2cccc(Cl)c2)C1` (stereo in doubt; 3), the IC50 in data set [1] amounted to 1 nM; in data set [2] it was 32 nM; in data set [3], 0.13 nM. This compound gave a clearance in [6] of 51 mL/min/kg. In addition, in [4], the CL free came to 4427 mL/min/kg. Moreover, in data set [5] (setting [10]), the mean residence time (MRT) was determined as 1.6 h.
As for `CC(C(=O)Nc1ccc(Cl)cc1)N1CCC2C(CCCN2C(=O)OC2CC2)C1` (stereo in doubt; 27), the IC50 in data set [1] turned out to be 1.9 nM; in data set [2], 43 nM; in data set [3], 0.73 nM. The results for the clearance in data set [6] and in data set [7] were 22 mL/min/kg and 9 mL/min/kg, respectively. For the same compound, the CL free amounted to 1613 mL/min/kg in data set [4] and 727 mL/min/kg in data set [8]. Moreover, the MRT in data set [5] (setting [10]) is 2.9 h; in data set [9], 8.1 h.

The values are drawn from ChEMBL document CHEMBL4808232, “Discovery of IDO1 inhibitors containing a decahydroquinoline, decahydro-1,6-naphthyridine, or octahydro-1H-pyrrolo[3,2-c]pyridine scaffold” (Bioorg Med Chem Lett, 2021).
